Measured values from PMC9716094, “Synthesis of novel amidines via one-pot three component reactions: Selective topoisomerase I inhibitors with antiproliferative properties” (Frontiers in Chemistry, 2022).

Assays:
[1] = Cell viability assay (MTT) on normal cell line; format: cell-based; details: human, MCF-10A mammary epithelial cells, 50 µM of compound;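 also: values are percent cell viability not percent inhibition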
Protocol: To study the effect of 4a-l and 5a-c on normal cell lines, a cell viability assay was done using the MCF-10A (human mammary gland epithelial) cell line ([Abdelbaset et al., 2019]; [Al-Wahaibi et al., 2020]). This study uses a concentration of 50 µM of the investigated compound for 4 days, after which cell viability is evaluated.
To study the effect of 4a-l and 5a-c on normal cell lines, a cell viability assay was done using the MCF-10A (human mammary gland epithelial) cell line ([Abdelbaset et al., 2019]; [Al-Wahaibi et al., 2020]). See Supplementary Appendix S1A.
MTT assay was carried out to study the effect of compounds on mammary epithelial cells (MCF-10A). The medium in which cells were propagated contained Dulbecco's modified Eagle's medium (DMEM)/ Ham's F-12 medium (1:1) supplemented with epidermal growth factor (20 ng/mL), hydrocortisone (500 ng/mL), insulin (10 μg/mL), 2 mM glutamine and 10% fetal calf serum. After every 2-3 days, the cells were passaged using trypsin ethylenediamine tetra acetic acid (EDTA). The cells were seeded at a density of 10^4 cells mL^-1 in flat-bottomed culture plates containing 96 wells each. After 24 h, medium was removed from the plates and the compounds in (in 0.1% DMSO) were added (in 200 μL medium to yield a final concentration of 0.1% v/v) to the wells of plates. A single compound was designated with four wells followed by incubation of plates for 96h at 37°C. After incubation, medium was removed completely from the plates followed by addition of MTT (0.4 mg/mL in medium) to each well and subsequent incubation of plates for 3h. MTT (along with the medium) was removed and DMSO (150μL) was added to each well of the culture plates, followed by vortexing and subsequent measurement of absorbance (at 540 nm) using microplate reader. The data are shown as percentage inhibition of proliferation in comparison with controls containing 0.1% DMSO.

[2] = tested on: four cancer cell lines (A-549, MCF-7, Panc-1, HT-29); assay: Antiproliferative assay, average over the four cancer cell lines (GI50); details: read-out: Antiproliferative activity IC50, Average (mean GI50)
Protocol: (§4) The IC50 of each compound was calculated using doxorubicin as the reference.
(§5) To explore the antiproliferative potential of compounds MTT assay was performed according to previously reported procedure using different cell lines to explore the antiproliferative potential of compounds propidium iodide fluorescence assay was performed using different cell lines. To calculate the total nuclear DNA, a fluorescent dye (propidium iodide, PI) is used which can attach to the DNA, thus offering a quick and precise technique. PI cannot pass through the cell membrane and its signal intensity can be considered as directly proportional to quantity of cellular DNA. Cells whose cell membranes are damaged or have changed permeability are counted as dead ones. The assay was performed by seeding the cells of different cell lines at a density of 3000-7500 cells/well (in 200µl medium) in culture plates followed by incubation for 24h at 37 °C in humidified 5% CO2/95% air atmospheric conditions. The medium was removed; the compounds were added to the plates at 10 µM concentrations (in 0.1% DMSO) in triplicates, followed by incubation for 48 h. DMSO (0.1%) was used as control. After incubation, medium was removed followed by the addition of PI (25 µl, 50µg/mL in water/medium) to each well of the plates. At -80 °C, the plates were allowed to freeze for 24 h, followed by thawing at 25 °C. A fluorometer (Polar-Star BMG Tech) was used to record the readings at excitation and emission wavelengths of 530 and 620 nm for each well. The percentage cytotoxicity of compounds was calculated using the following formula:

[3] = tested on: A-549 (epithelial cancer cell line); assay: Antiproliferative assay, A-549; format: cell-based; details: Homo sapiens, A549; read-out: Antiproliferative activity IC50 ± SEM, A-549
Text: (§1) See Supplementary Appendix S1A.
(§2) DMSO (0.1%) was used as control.

[4] = target: T1, topo IIα (Homo sapiens, UniProt P11388); assay: Topo IIα inhibitory assay (pBR322 relaxation); format: biochemical
T1 construct: purchased USB Corp., USA
T1 sequence (P11388 whole entry): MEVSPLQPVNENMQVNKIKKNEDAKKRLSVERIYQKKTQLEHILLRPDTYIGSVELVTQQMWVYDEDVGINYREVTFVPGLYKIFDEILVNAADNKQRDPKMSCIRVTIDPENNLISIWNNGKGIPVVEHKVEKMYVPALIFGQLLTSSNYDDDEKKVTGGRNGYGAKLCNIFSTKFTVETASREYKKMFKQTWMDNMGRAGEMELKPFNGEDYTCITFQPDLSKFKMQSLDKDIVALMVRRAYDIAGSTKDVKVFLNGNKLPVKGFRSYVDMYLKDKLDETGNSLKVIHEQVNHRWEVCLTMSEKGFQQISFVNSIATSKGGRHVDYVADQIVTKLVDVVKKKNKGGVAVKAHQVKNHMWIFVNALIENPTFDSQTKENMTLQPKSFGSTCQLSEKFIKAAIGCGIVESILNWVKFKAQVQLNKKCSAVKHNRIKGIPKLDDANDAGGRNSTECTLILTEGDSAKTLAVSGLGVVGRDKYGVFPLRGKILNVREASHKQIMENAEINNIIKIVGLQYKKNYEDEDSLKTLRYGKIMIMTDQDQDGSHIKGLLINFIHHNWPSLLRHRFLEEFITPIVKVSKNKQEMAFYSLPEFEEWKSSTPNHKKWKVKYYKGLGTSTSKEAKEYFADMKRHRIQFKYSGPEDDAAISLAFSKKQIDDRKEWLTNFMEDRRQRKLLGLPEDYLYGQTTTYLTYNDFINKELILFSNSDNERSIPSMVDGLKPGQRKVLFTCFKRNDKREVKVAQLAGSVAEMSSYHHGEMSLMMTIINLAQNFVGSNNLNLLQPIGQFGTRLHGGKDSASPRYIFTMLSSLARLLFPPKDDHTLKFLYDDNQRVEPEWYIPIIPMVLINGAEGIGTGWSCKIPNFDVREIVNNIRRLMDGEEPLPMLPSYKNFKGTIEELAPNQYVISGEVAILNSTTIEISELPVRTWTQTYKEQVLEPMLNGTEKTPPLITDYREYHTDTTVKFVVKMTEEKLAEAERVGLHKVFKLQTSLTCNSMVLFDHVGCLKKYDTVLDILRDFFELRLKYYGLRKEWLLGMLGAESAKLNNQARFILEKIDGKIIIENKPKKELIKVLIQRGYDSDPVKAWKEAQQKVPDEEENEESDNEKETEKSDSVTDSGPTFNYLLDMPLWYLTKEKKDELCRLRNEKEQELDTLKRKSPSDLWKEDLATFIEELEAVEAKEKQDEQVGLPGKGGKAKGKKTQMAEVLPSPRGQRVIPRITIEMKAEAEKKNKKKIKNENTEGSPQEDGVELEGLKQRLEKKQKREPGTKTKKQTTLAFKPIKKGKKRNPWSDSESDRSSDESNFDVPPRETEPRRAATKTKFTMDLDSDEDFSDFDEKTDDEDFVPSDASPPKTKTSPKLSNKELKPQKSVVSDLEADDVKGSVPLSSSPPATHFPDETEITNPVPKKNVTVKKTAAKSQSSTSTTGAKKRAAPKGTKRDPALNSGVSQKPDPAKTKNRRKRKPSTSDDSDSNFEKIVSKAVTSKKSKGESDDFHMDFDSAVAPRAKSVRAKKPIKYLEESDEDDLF
Protocol: (§3) All the tested compounds were dissolved in DMSO and the DNA topoisomerase I and II inhibitory activity of each compound was measured as follows according to previously reported methods. Mixture comprising of 100 ng supercoiled pBR322 plasmid DNA (Thermo Scientific, USA) and 0.2 ~ 1 unit of recombinant human DNA topo I (Topo GEN INC., USA) or topo IIα (USB Corp., USA) was incubated with or without the prepared compounds in the assay buffer (For topo I, 10 mM Tris-HCl (pH 7.9), 150 mM NaCl and 0.1% BSA, 0.1 mM spermidine and 5% glycerol; for topo II, 10 mM Tris-HCl (pH 7.9), 50 mM NaCl, 50 mM KCl, 5 mM MgCl2, 1 mM EDTA, 1 mM ATP and […] BSA) for 30 min at 37 ◦C. The reaction with final volume of 10 μL was stopped by adding the topo stop buffer (For topo I, 10% SDS solution containing 0.2% bromophenol blue, 0.2% xylene cyanol and 30% glycerol; for topo II, 7 mM EDTA). The reaction products were electrophoresed on 0.8% agarose gel at 50 V for 1 h with TAE electrophoresis buffer. The gels were stained in an EtBr solution (0.5 mg/mL) and visualized by transillumination with UV light and were quantitated using Alpha Tech ImagerTM (Alpha Innotech Corp., USA).

[5] = target: T2, recombinant human DNA topo I (Homo sapiens, UniProt P11387); assay: Topo I inhibitory assay (pBR322 relaxation); format: biochemical
T2 construct: purchased Topo GEN INC., USA
T2 sequence (P11387 1-765): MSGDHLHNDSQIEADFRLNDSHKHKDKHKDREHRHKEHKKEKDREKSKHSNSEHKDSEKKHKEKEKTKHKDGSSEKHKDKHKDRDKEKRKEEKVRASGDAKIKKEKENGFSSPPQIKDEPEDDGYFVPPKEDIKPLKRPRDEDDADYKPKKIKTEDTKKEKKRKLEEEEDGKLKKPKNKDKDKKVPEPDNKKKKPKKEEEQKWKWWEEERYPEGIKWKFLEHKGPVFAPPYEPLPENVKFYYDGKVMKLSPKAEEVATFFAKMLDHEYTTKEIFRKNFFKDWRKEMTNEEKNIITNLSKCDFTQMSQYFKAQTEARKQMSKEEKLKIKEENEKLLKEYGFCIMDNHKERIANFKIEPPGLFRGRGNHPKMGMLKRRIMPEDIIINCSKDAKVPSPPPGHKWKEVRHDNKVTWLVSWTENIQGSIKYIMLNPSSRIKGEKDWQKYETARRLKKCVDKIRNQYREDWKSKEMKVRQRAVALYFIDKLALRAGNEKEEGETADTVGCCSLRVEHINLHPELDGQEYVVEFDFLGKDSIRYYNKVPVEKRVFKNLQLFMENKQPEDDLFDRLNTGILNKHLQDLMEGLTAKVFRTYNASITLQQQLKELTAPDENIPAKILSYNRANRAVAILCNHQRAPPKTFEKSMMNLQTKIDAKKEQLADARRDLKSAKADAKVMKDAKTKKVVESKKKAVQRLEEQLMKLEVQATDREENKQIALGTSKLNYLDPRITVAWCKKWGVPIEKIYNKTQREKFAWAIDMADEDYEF
Protocol: as §3

[6] = tested on: HT-29 (colon cancer cell line); assay: Antiproliferative assay, HT-29; details: Homo sapiens, HT-29, read-out: Antiproliferative activity IC50 ± SEM, HT-29
Protocol: as §4, §5

[7] = tested on: MCF-7 (breast cancer cell line); assay: Antiproliferative assay, MCF-7; format: cell-based; details: Homo sapiens, MCF7; read-out: Antiproliferative activity IC50 ± SEM, MCF-7
Text: as §1, §2

[8] = tested on: Panc-1 (pancreas cancer cell line); assay: Antiproliferative assay, Panc-1; format: cell-based; details: Homo sapiens, read-out: Antiproliferative activity IC50 ± SEM, Panc-1
Text: as §1, §2

| IC50 [2] | IC50 [3] | melting point | inhibition at 20 µM [4] | inhibition at 100 µM [4] | inhibition at 20 µM [5] | inhibition at 100 µM [5] | IC50 [6] | IC50 [7] | IC50 [8] | SMILES | viability at 4 days, 50 µM [1] |
| --- | --- | --- | --- | --- | --- | --- | --- | --- | --- | --- | --- |
| 1500 nM | 1500 ± 100 nM | 222 °C | 22.3% | 57.2% | 29.6% | 65.9% | 1600 ± 100 nM | 1400 ± 100 nM | 1500 ± 100 nM | Cc1ccc2[nH]c(=O)cc(/N=C(\C3CCCC3)N3CCCCC3)c2c1 [Compound 4b, (E) 4-((Cyclopentyl(piperidin-1-yl)methylene)amino)-6-methylquinolin-2(1H)-one] | 92% |
| 1350 nM | 1500 ± 100 nM | 248 °C | 21.7% | 54.2% | 34.7% | 71.6% | 1400 ± 100 nM | 1200 ± 100 nM | 1300 ± 100 nM | O=c1cc(/N=C(\C2CCCC2)N2CCCCC2)c2cc(Cl)ccc2[nH]1 [Compound 4d, (E) 4-((Cyclopentyl(piperidin-1-yl)methylene)amino)-6-chloroquinolin-2(1H)-one] | 92% |
| 1200 nM | 1300 ± 100 nM | 184 °C | 25.6% | 60.4% | 39.1% | 81.4% | 1200 ± 100 nM | 1100 ± 100 nM | 1200 ± 100 nM | Cc1cccc2c(/N=C(\C3CCCC3)N3CCCCC3)cc(=O)[nH]c12 [Compound 4e, (E) 4-((Cyclopentyl(piperidin-1-yl)methylene)amino)-8-methylquinolin-2(1H)-one] | 90% |
| 1300 nM | 1100 ± 200 nM | 247 °C | 23.1% | 56.7% | 37.2% | 74.9% | 1200 ± 200 nM | 1400 ± 200 nM | 1600 ± 200 nM | COc1ccc2[nH]c(=O)cc(/N=C(\C3CCCC3)N3CCOCC3)c2c1 [Compound 4i, (E) 4-((Cyclopentyl(morpholino)methylene)amino)-6-methoxyquinolin-2(1H)-one] | 89% |
